Data taken from article PMC4068261 (Journal of natural products, 2014).

Assays:
HIV-1 [1] = assay: microbe, parasite or virus in culture; assay type: cell-based; conditions: Human immunodeficiency virus 1, HOG.R5, read-out: anti-HIV activity IC50
HIV-1 [2] = conditions: previous discovery; cited from earlier work

## COc1cc(O)cc2c1C(=O)C[C@@H](c1ccccc1)O2 [Compound 5, alpinetin]
HIV-1 [1]
  IC50: 130 µM

## C=Cc1c(C)c2cc3nc(c4c5[nH]c(cc6nc(cc1[nH]2)C(C)=C6CC)c(C)c5C(=O)[C@@H]4C(=O)OC)[C@@H](CCC(=O)O)[C@@H]3C [pheophorbide a]
HIV-1 [2]
  anti-HIV activity (in words): potent anti-HIV agent
